According to patent publication US20220380319A1 (Bial - R&D Investments, S.A., priority 2019, published 2022):
Values after ≈ are worked out from the molar mass of the structure shown.

Legend:
[1] = Compound solubility in water
acid ceramidase = target: T1, acid ceramidase (Homo sapiens, UniProt Q13510); assay: Acid ceramidase inhibition, biochemical fluorescent assay with cell lysates overexpressing acid ceramidase, substrate Rbm14-12; settings: substrate Rbm14-12 6.3 μM
T1 construct: Cell lysates overexpressing acid ceramidase were used as the enzyme source; expressed in transfected cells
T1 sequence (Q13510 22-395): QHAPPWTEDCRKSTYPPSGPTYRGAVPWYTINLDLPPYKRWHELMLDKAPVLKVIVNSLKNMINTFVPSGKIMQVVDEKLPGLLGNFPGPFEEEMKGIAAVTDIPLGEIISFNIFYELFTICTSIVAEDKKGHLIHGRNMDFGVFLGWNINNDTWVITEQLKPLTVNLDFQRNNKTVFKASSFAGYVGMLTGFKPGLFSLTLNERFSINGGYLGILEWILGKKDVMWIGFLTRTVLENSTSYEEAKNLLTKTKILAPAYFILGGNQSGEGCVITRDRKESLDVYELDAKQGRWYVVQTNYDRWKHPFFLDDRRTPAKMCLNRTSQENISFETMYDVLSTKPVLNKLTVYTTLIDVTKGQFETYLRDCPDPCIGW
Description: The ability of exemplary compounds to inhibit acid ceramidase was measured.
Cell lysates overexpressing acid ceramidase were used as the enzyme source for compound potency determination in a biochemical fluorescent assay. Briefly, compounds were preincubated with 10 μg protein of cell lysates in a dose-response manner for 1 hr at RT in the assay buffer containing 25 mM NaAC and 100 mM NaCl, pH 4.5. The reaction was initiated by the addition of substrate Rbm14-12 at a final concentration of 6.3 μM. The reaction was run at RT for 1 hr before it was stopped by the addition of the stopping buffer containing 20% methanol (v/v), 1 mg/ml NaIO4, 0.1 M glycine, pH 10.6. The samples were incubated with the stopping buffer at RT for 1 hr to allow the fluorescent product to be formed. Finally, the plate was read with SpectraMax i3 plate reader (Molecular Devices) at ex360 nm and em446 nm. Data were collected and used to determine the IC50 values of compounds by curve fitting to the four-parameter inhibition equation.

[2] = pH 4.5, 1 hr preincubation at RT

solubility [1] | IC50 (acid ceramidase; [2]) | IC50 (acid ceramidase; pH 4.5) | SMILES
46 µg/mL (≈ 103 µM) | < 200 nM | – | CN1CC2CC1CN2C1CN(c2cccc3c2ncn3C(=O)NCCOc2ccccc2)C1 (stereo not shown) [Example 356, 4-(3-(5-Methyl-2,5-diazabicyclo[2.2.1]heptan-2-yl)azetidin-1-yl)-N-(2-phenoxyethyl)-1H-benzo[d]imidazole-1-carboxamide]
25 µg/mL (≈ 69 µM) | – | < 200 nM | CN1CCC(c2cccc3c2ncn3C(=O)NCCCc2ccccc2)C1 (stereo not shown) [Example 267, 4-(1-Methylpyrrolidin-3-yl)-N-(3-phenylpropyl)-1H-benzo[d]imidazole-1-carboxamide]
9.1 µg/mL (≈ 26.1 µM) | < 200 nM | – | O=C(NCCc1ccccc1)n1cnc2ccc(N3CCCCC3)cc21 [Example 13b, N-Phenethyl-6-(piperidin-1-yl)-1H-benzo[d]imidazole-1-carboxamide]
21 µg/mL (≈ 53.6 µM) | – | < 200 nM | CN(C)CC1CN(c2cccc3c2ncn3C(=O)NCCCc2ccccc2)C1 [Example 272, 4-(3-((Dimethylamino)methyl)azetidin-1-yl)-N-(3-phenylpropyl)-1H-benzo[d]imidazole-1-carboxamide]
21 µg/mL (≈ 56.2 µM) | – | < 200 nM | CN1CCN(c2cccc3c2ncn3C(=O)NCC#Cc2ccccc2)CC1 [Example 282, 4(4-Methylpiperazin-1-yl)-N-(3-phenylprop-2-yn-1-yl)-1H-benzo[d]imidazole-1-carboxamide]
16.9 µg/mL (≈ 51.9 µM) | 200 to 1000 nM | – | COc1nc2cc(-c3cccnc3)cnc2n1C(=O)NCC(C)C [Example 83, N-iso-Butyl-2-methoxy-6-(pyridin-3-yl)-3H-imidazo[4,5-b]pyridine-3-carboxamide]
11.2 µg/mL (≈ 38.4 µM) | 200 to 1000 nM | – | CCCCNC(=O)n1c(OCC)nc2c(OC)cccc21 [Example 94, N-Butyl-2-ethoxy-4-methoxy-1H-benzo[d]imidazole-1-carboxamide]
4 µg/mL (≈ 10.7 µM) | < 200 nM | – | C#Cc1ccc(CNC(=O)n2cnc3c(N4CCN(C)CC4)cccc32)cc1 [Example 342, N-(4-Ethynylbenzyl)-4-(4-methylpiperazin-1-yl)-1H-benzo[d]imidazole-1-carboxamide]
26 µg/mL (≈ 60.7 µM) | – | < 200 nM | CN1CC(N2CCN(c3cccc4c3ncn4C(=O)NCC#Cc3ccccc3)CC2)C1 [Example 333, 4-(4-(1-Methylazetidin-3-yl)piperazin-1-yl)-N-(3-phenylprop-2-yn-1-yl)-1H-benzo[d]imidazole-1-carboxamide]
32.7 µg/mL (≈ 92 µM) | > 1000 nM | – | CN1CCN(CCNC(=O)n2cnc3cc(C(F)(F)F)ccc32)CC1 [Example 78, N-(2-(4-Methylpiperazin-1-yl)ethyl)-5-(trifluoromethyl)-1H-benzo[d]imidazole-1-carboxamide]
1 µg/mL (≈ 2.4 µM) | – | < 200 nM | O=C1CN(c2cccc3c2ncn3C(=O)NCCCc2ccccc2)CCN1C1CC1 [Example 252, 4-(4-Cyclopropyl-3-oxopiperazin-1-yl)-N-(3-phenylpropyl)-1H-benzo[d]imidazole-1-carboxamide]
18 µg/mL (≈ 58.9 µM) | 200 to 1000 nM | – | CCCCNC(=O)n1c(OC(C)C)nc2c(OC)cccc21 [Example 97a]
1 µg/mL (≈ 2.6 µM) | – | 200 to 1000 nM | COc1nc2ccc(N3CCOCC3)cc2n1C(=O)NCC1(CC2CC2)CC1 [Example 229a, N-((1-(Cyclopropylmethyl)cyclopropyl)-methyl)-2-methoxy-6-morpholino-1H-benzo[d]imidazole-1-carboxamide]
24.5 µg/mL (≈ 75.3 µM) | 200 to 1000 nM | – | CCCCNC(=O)n1c(OC)nc2cc(-c3cncnc3)ccc21 [Example 82b, N-Butyl-2-methoxy-5-(pyrimidin-5-yl)-1H-benzo[d]imidazole-1-carboxamide]
31 µg/mL (≈ 78.8 µM) | – | < 200 nM | CC(C)C#CCNC(=O)n1cnc2c(N3CCC4(CCCN4C)CC3)cccc21 [Example 311, 4-(1-Methyl-1,8-diazaspiro[4.5]decan-8-yl)-N-(4-methylpent-2-yn-1-yl)-1H-benzo[d]imidazole-1-carboxamide]
1.3 µg/mL (≈ 4.08 µM) | < 200 nM | – | N#Cc1cccc2c1ncn2C(=O)NCCCCc1ccccc1 [Example 130, 4-Cyano-N-(4-phenylbutyl)-1H-benzo[d]imidazole-1-carboxamide]

solubility [1] | IC50 (acid ceramidase; [2]) | IC50 (acid ceramidase; pH 4.5) | SMILES
22.9 µg/mL (≈ 66.9 µM) | 200 to 1000 nM | – | Cc1cc(C2CCN(C)CC2)c2ncn(C(=O)NCCC(C)C)c2c1 [Example 112a]
23.1 µg/mL (≈ 58.2 µM) | < 200 nM | – | CN1CCC(c2cc3ncn(C(=O)NCCc4ccccc4)c3cc2Cl)CC1 [Example 11b, 6-Chloro-5-(1-methylpiperidin-4-yl)-N-phenethyl-1H-benzo[d]imidazole-1-carboxamide]
0.5 µg/mL (≈ 1.27 µM) | – | < 200 nM | C[C@@H]1CN(c2cccc3c2ncn3C(=O)NCCCc2ccccc2)C[C@H](C)O1 [Example 219, 4-((2S,6R)-2,6-Dimethylmorpholino)-N-(3-phenylpropyl)-1H-benzo[d]imidazole-1-carboxamide]
15.4 µg/mL (≈ 52.9 µM) | > 1000 nM | – | COc1cccc2c1nc(OC)n2C(=O)NCCC(C)C [Example 115, N-iso-Pentyl-2,4-dimethoxy-1H-benzo[d]imidazole-1-carboxamide]
4 µg/mL (≈ 11.3 µM) | – | < 200 nM | COCCOc1nc2ccccc2n1C(=O)NCCCc1ccccc1 [Example 191, 2-(2-Methoxyethoxy)-N-(3-phenylpropyl)-1H-benzo[d]imidazole-1-carboxamide]
2 µg/mL (≈ 4.9 µM) | < 200 nM | – | COc1nc2cc(N3CCOCC3)ccc2n1C(=O)NCCCCc1ccccc1 [Example 133b, 2-methoxy-5-morpholino-N-(4-phenylbutyl)-1H-benzo[d]imidazole-1-carboxamide]
1 µg/mL (≈ 2.51 µM) | – | < 200 nM | O=C(NCCCc1ccccc1)n1cnc2c(N3CCC(F)(F)CC3)cccc21 [Example 248, 4-(4,4-Difluoropiperidin-1-yl)-N-(3-phenylpropyl)-1H-benzo[d]imidazole-1-carboxamide]
0.5 µg/mL (≈ 1.5 µM) | < 200 nM | – | O=C(NCCc1ccccc1)n1cnc2cc(C(F)(F)F)ccc21 [Example 26a, N-Phenethyl-5-(trifluoromethyl)-1H-benzo[d]imidazole-1-carboxamide]
20.2 µg/mL (≈ 85.9 µM) | 200 to 1000 nM | – | CCCCNC(=O)n1cnc2ccc(F)cc21 [Example 69, N-Butyl-6-fluoro-1H-benzo[d]imidazole-1-carboxamide]
18 µg/mL (≈ 46 µM) | < 200 nM | – | CN1CCN(c2cccc3c2ncn3C(=O)NCC#Cc2ccccc2F)CC1 [Example 338, N-(3-(2-Fluorophenyl)prop-2-yn-1-yl)-4-(4-methylpiperazin-1-yl)-1H-benzo[d]imidazole-1-carboxamide]
21 µg/mL (≈ 66.4 µM) | 200 to 1000 nM | – | CC(C)CCNC(=O)n1cnc2c(N3CCOCC3)cccc21 [Example 118, N-iso-Pentyl-4-morpholino-1H-benzo[d]imidazole-1-carboxamide]
0.2 µg/mL (≈ 0.56 µM) | < 200 nM | – | O=C(NCCc1ccccc1)n1c(Oc2ccccc2)nc2ccccc21 [Example 37, N-Phenethyl-2-phenoxy-1H-benzo[d]imidazole-1-carboxamide]
0.05 µg/mL (≈ 0.145 µM) | < 200 nM | – | CCOc1nc2c(Cl)cccc2n1C(=O)NCCc1ccccc1 [Example 93, 4-Chloro-2-ethoxy-N-phenethyl-1H-benzo[d]imidazole-1-carboxamide]
1 µg/mL (≈ 3.08 µM) | < 200 nM | – | COc1nc2ncccc2n1C(=O)NCCCCc1ccccc1 [Example 61, 2-Methoxy-N-(4-phenylbutyl)-1H-imidazo[4,5-b]pyridine-1-carboxamide]
34 µg/mL (≈ 96.7 µM) | – | 200 to 1000 nM | CC(C)C#CCNC(=O)n1cnc2c(N3CC4CC3CN4C)cccc21 (stereo not shown) [Example 301, 4-(5-Methyl-2,5-diazabicyclo[2.2.1]heptan-2-yl)-N-(4-methylpent-2-ynyl)-1H-benzo[d]imidazole-1-carboxamide]
2 µg/mL (≈ 7.11 µM) | < 200 nM | – | O=C(NCCOc1ccccc1)n1cnc2ccccc21 [Example 18, N-(2-Phenoxyethyl)-1H-benzo[d]imidazole-1-carboxamide]

SMILES | solubility [1] | IC50 (acid ceramidase; [2]) | IC50 (acid ceramidase; pH 4.5)
COc1nc2ccc(N3[C@@H]4CC[C@H]3COC4)cc2n1C(=O)NCCCc1ccccc1 [Example 237b, 6-((1R,5S)-3-oxa-8-azabicyclo[3.2.1]octan-8-yl)-2-methoxy-N-(3-phenylpropyl)-1H-benzo[d]imidazole-1-carboxamide] | 5 µg/mL (≈ 11.9 µM) | – | < 200 nM
CC(C)CCNC(=O)n1cnc2c(N3CC4(COC4)C3)cccc21 [Example 176] | 22 µg/mL (≈ 67 µM) | – | 200 to 1000 nM
O=C(NCCCCc1ccccc1)n1cnc2c(N3CCC4(CC3)COC4)cccc21 [Example 217, N-(4-Phenylbutyl)-4-(2-oxa-7-azaspiro[3.5]nonan-7-yl)-1H-benzo[d]imidazole-1-carboxamide] | 0.6 µg/mL (≈ 1.43 µM) | – | < 200 nM
